The assay concerns the target T1, cow milk xanthine oxidase.
T1 construct: gene XDH; commercial enzyme from Himedia Laboratories; abstract says cow milk, reagent list says source: microorganisms
Put plainly: spectrophotometric uric acid formation at […] nm. The conditions noted are these: xanthine substrate (150 mM stock as printed, 2 mL added), phosphate buffer pH 7.5, 25 °C, 15 min preincubation, 30 min reaction. The class given is biochemical.

Each structure is given as a SMILES string. Values after ≈ are worked out from the molar mass of the structure shown.

The values that follow come from article PMC4157028, “HPTLC Analysis, Antioxidant and Antigout Activity of Indian Plants” (Iranian Journal of Pharmaceutical Research : IJPR, 2014).

Turning to `O=c1[nH]cnc2[nH]ncc12` [Allopurinol], the IC50 (usually the concentration that inhibits the measured activity by half) is 6.75 µg/mL (≈ 49.6 µM).
